Test system: MV-4-11 cells
Assay: Gene expression microarray analysis (Affymetrix PrimeView) and GSEA
Type: cell-based, human
Design: RFU PODN (11730768_x_at) / Fold change /veh PODN (11730768_x_at) / RFU LINC00158 (11744669_a_at) / Fold change /veh LINC00158 (11744669_a_at) / RFU DUSP10 (11751237_a_at) / Fold change /veh DUSP10 (11751237_a_at) / RFU ID3 (11757404_x_at) / Fold change /veh ID3 (11757404_x_at) / RFU PLEKHG5 (11737974_s_at) / Fold change /veh PLEKHG5 (11737974_s_at) / RFU LRRC4B (11730491_at) / Fold change /veh LRRC4B (11730491_at) / RFU GIMAP4 (11747438_a_at) / Fold change /veh GIMAP4 (11747438_a_at) / RFU KRT8 (11758183_x_at) / Fold change /veh KRT8 (11758183_x_at) / RFU CNN1 (11734310_a_at) / Fold change /veh CNN1 (11734310_a_at) / RFU VPS37D (11726825_at) / Fold change /veh VPS37D (11726825_at) / RFU C10orf10 (11716522_x_at) / Fold change /veh C10orf10 (11716522_x_at) / RFU KIR2DL2 /// KIR2DL4 /// KIR2DL5A /// KIR2DL5B /// KIR2DS1 /// KIR2DS2 /// KIR2DS3 /// KIR2DS4 /// KIR3DL3 /// KIR3DL3 /// KIR3DS1 (11738374_at) / Fold change /veh KIR2DL2 /// KIR2DL4 /// KIR2DL5A /// KIR2DL5B /// KIR2DS1 /// KIR2DS2 /// KIR2DS3 /// KIR2DS4 /// KIR3DL3 /// KIR3DL3 /// KIR3DS1 (11738374_at) / RFU C1QL1 (11718748_at) / Fold change /veh C1QL1 (11718748_at) / RFU TMPRSS4 (11747572_a_at) / Fold change /veh TMPRSS4 (11747572_a_at) / RFU HAMP (11756126_x_at) / Fold change /veh HAMP (11756126_x_at) / RFU RNFT2 (11725882_a_at) / Fold change /veh RNFT2 (11725882_a_at) / RFU NR4A2 (11747474_a_at) / Fold change /veh NR4A2 (11747474_a_at) / RFU ABCC12 (11746883_a_at) / Fold change /veh ABCC12 (11746883_a_at) / RFU TMEM136 (11760407_x_at) / Fold change /veh TMEM136 (11760407_x_at) / RFU CLDN22 /// WWC2 (11732394_at) / Fold change /veh CLDN22 /// WWC2 (11732394_at) / RFU HLA-DPB1 (11760878_x_at) / Fold change /veh HLA-DPB1 (11760878_x_at) / RFU SPINT1 (11716480_a_at) / Fold change /veh SPINT1 (11716480_a_at) / RFU GAP43 (11754022_s_at) / Fold change /veh GAP43 (11754022_s_at) / RFU A4GNT (11735810_at) / Fold change /veh A4GNT (11735810_at) / RFU PRB3 (11715151_x_at) / Fold change /veh PRB3 (11715151_x_at) / RFU TUBB4B (11761932_at) / Fold change /veh TUBB4B (11761932_at) / RFU CAPN14 (11732068_a_at) / Fold change /veh CAPN14 (11732068_a_at) / RFU TMCC2 (11721928_a_at) / Fold change /veh TMCC2 (11721928_a_at) / RFU IRGQ (11745062_a_at) / Fold change /veh IRGQ (11745062_a_at) / RFU FAM174B (11720279_a_at) / Fold change /veh FAM174B (11720279_a_at) / RFU TMPRSS4 (11748680_a_at) / Fold change /veh TMPRSS4 (11748680_a_at) / RFU FAM212B (11763350_a_at) / Fold change /veh FAM212B (11763350_a_at) / RFU PLEKHG5 (11743358_a_at) / Fold change /veh PLEKHG5 (11743358_a_at) / RFU ZSCAN30 (11745921_a_at) / Fold change /veh ZSCAN30 (11745921_a_at) / RFU CMKLR1 (11741424_a_at) / Fold change /veh CMKLR1 (11741424_a_at) / RFU LOC101060620 /// MAPK8IP1 (11723275_at) / Fold change /veh LOC101060620 /// MAPK8IP1 (11723275_at) / RFU SPTSSB (11747773_x_at) / Fold change /veh SPTSSB (11747773_x_at) / RFU PRSS12 (11739890_at) / Fold change /veh PRSS12 (11739890_at) / RFU BIN1 (11741810_x_at) / Fold change /veh BIN1 (11741810_x_at) / RFU WNT11 (11732464_a_at) / Fold change /veh WNT11 (11732464_a_at) / RFU C10orf10 (11716521_a_at) / Fold change /veh C10orf10 (11716521_a_at) / RFU C5orf56 (11738089_at) / Fold change /veh C5orf56 (11738089_at) / RFU CYB561 (11721691_x_at) / Fold change /veh CYB561 (11721691_x_at) / RFU ANKRD19P (11752326_a_at) / Fold change /veh ANKRD19P (11752326_a_at) / RFU OR2T12 /// OR2T33 /// OR2T8 (11738714_s_at) / Fold change /veh OR2T12 /// OR2T33 /// OR2T8 (11738714_s_at) / RFU VCAN (11748164_a_at) / Fold change /veh VCAN (11748164_a_at) / RFU JSRP1 (11732532_at) / Fold change /veh JSRP1 (11732532_at) / RFU KRTAP10-11 (11738290_x_at) / Fold change /veh KRTAP10-11 (11738290_x_at) / RFU MYO3A (11730013_a_at) / Fold change /veh MYO3A (11730013_a_at) / RFU EBF3 (11725865_a_at) / Fold change /veh EBF3 (11725865_a_at) / RFU CAMK2N1 (11719241_x_at) / Fold change /veh CAMK2N1 (11719241_x_at) / RFU C5orf56 (11738088_a_at) / Fold change /veh C5orf56 (11738088_a_at) / RFU OLFML3 (11715873_a_at) / Fold change /veh OLFML3 (11715873_a_at) / RFU LOC100653217 /// NTM (11731650_a_at) / Fold change /veh LOC100653217 /// NTM (11731650_a_at) / RFU MAPK11 (11762145_a_at) / Fold change /veh MAPK11 (11762145_a_at) / RFU FIZ1 (11724087_x_at) / Fold change /veh FIZ1 (11724087_x_at) / RFU OASL (11726364_x_at) / Fold change /veh OASL (11726364_x_at) / RFU SOX15 (11748057_x_at) / Fold change /veh SOX15 (11748057_x_at) / RFU CD79A (11719716_a_at) / Fold change /veh CD79A (11719716_a_at) / RFU HIST1H1D (11736915_at) / Fold change /veh HIST1H1D (11736915_at) / RFU CASKIN2 (11723855_a_at) / Fold change /veh CASKIN2 (11723855_a_at) / RFU LOC730098 (11760151_x_at) / Fold change /veh LOC730098 (11760151_x_at) / RFU OR4N2 (11742367_at) / Fold change /veh OR4N2 (11742367_at) / RFU PRRT2 (11749266_a_at) / Fold change /veh PRRT2 (11749266_a_at) / RFU SNX32 (11753110_a_at) / Fold change /veh SNX32 (11753110_a_at) / RFU CDHR5 (11726645_a_at) / Fold change /veh CDHR5 (11726645_a_at) / RFU RCAN1 (11760418_a_at) / Fold change /veh RCAN1 (11760418_a_at) / RFU FAM167A (11723789_a_at) / Fold change /veh FAM167A (11723789_a_at) / RFU FAM26E (11764081_at) / Fold change /veh FAM26E (11764081_at) / RFU ISYNA1 (11749810_s_at) / Fold change /veh ISYNA1 (11749810_s_at) / RFU ACY1 (11761880_at) / Fold change /veh ACY1 (11761880_at) / RFU 11764098_at / Fold change /veh 11764098_at / RFU SAMD14 (11745864_x_at) / Fold change /veh SAMD14 (11745864_x_at) / RFU NPB (11741838_a_at) / Fold change /veh NPB (11741838_a_at) / RFU TMPRSS6 (11731388_a_at) / Fold change /veh TMPRSS6 (11731388_a_at) / RFU KRTAP10-2 (11738614_at) / Fold change /veh KRTAP10-2 (11738614_at) / RFU ARHGAP8 /// PRR5-ARHGAP8 (11727945_x_at) / Fold change /veh ARHGAP8 /// PRR5-ARHGAP8 (11727945_x_at) / RFU KRTAP5-7 /// NADSYN1 (11734609_at) / Fold change /veh KRTAP5-7 /// NADSYN1 (11734609_at) / RFU RASL12 (11751679_a_at) / Fold change /veh RASL12 (11751679_a_at) / RFU CDKN2B (11736163_a_at) / Fold change /veh CDKN2B (11736163_a_at) / RFU PRF1 (11729649_at) / Fold change /veh PRF1 (11729649_at) / RFU, ZNF638 /// ZNF638-IT1 / Fold change vs veh, ZNF638 /// ZNF638-IT1 / RFU, PANK3 / Fold change vs veh, PANK3 / RFU, SH3YL1 / Fold change vs veh, SH3YL1 / RFU, ZEB2 / Fold change vs veh, ZEB2 / RFU, NRIP1 / Fold change vs veh, NRIP1 / RFU, PTTG1IP / Fold change vs veh, PTTG1IP / RFU, CAPN2 / Fold change vs veh, CAPN2 / RFU, MED14 / Fold change vs veh, MED14 / RFU, SNORA58 / Fold change vs veh, SNORA58 / RFU, C1orf63 / Fold change vs veh, C1orf63 / RFU, LRRFIP1 / Fold change vs veh, LRRFIP1 / RFU, NDUFAF7 / Fold change vs veh, NDUFAF7 / RFU, SLC12A2 / Fold change vs veh, SLC12A2 / RFU, IBTK / Fold change vs veh, IBTK / RFU, ESF1 / Fold change vs veh, ESF1 / Fold change vs veh, TMEM50B / RFU, TAOK1 / Fold change vs veh, TAOK1 / RFU, ACBD3 / Fold change vs veh, ACBD3 / RFU, TMA16 / Fold change vs veh, TMA16 / RFU, RWDD3 / Fold change vs veh, RWDD3 / RFU, BCAT1 / Fold change vs veh, BCAT1 / RFU, EDEM3 / Fold change vs veh, EDEM3 / RFU, TMEM33 / Fold change vs veh, TMEM33 / RFU, WDR75 / Fold change vs veh, WDR75 / RFU, AHCTF1 / Fold change vs veh, AHCTF1 / RFU, TFRC / Fold change vs veh, TFRC / RFU, ZDHHC17 / Fold change vs veh, ZDHHC17 / RFU, NOM1 / Fold change vs veh, NOM1 / RFU, ARL8B / Fold change vs veh, ARL8B / RFU, ZBTB11 / Fold change vs veh, ZBTB11 / RFU, TAMM41 / Fold change vs veh, TAMM41 / RFU, KIAA1704 /// LOC100996395 / Fold change vs veh, KIAA1704 /// LOC100996395 / RFU, ING1 / Fold change vs veh, ING1 / RFU, TRMT61B / Fold change vs veh, TRMT61B / RFU, FUBP3 / Fold change vs veh, FUBP3 / RFU, TP53 / Fold change vs veh, TP53 / RFU, TNKS2 / Fold change vs veh, TNKS2 / RFU, ZFP14 / Fold change vs veh, ZFP14 / RFU, ACTR2 / Fold change vs veh, ACTR2 / RFU, PPP3R1 / Fold change vs veh, PPP3R1 / RFU, PIK3R1 / Fold change vs veh, PIK3R1 / RFU, HNRNPA1 / Fold change vs veh, HNRNPA1 / RFU, RNF170 / Fold change vs veh, RNF170 / RFU, ZNF28 / Fold change vs veh, ZNF28 / RFU, RNGTT / Fold change vs veh, RNGTT / RFU, OGT / Fold change vs veh, OGT / RFU, BRD1 / Fold change vs veh, BRD1 / RFU, MARS / Fold change vs veh, MARS / RFU, ZNF655 / Fold change vs veh, ZNF655 / RFU, FAHD1 / Fold change vs veh, FAHD1 / RFU, BDP1 / Fold change vs veh, BDP1 / RFU, LRRCC1 / Fold change vs veh, LRRCC1 / RFU, ARID1A / Fold change vs veh, ARID1A / RFU, ZNF146 / Fold change vs veh, ZNF146 / RFU, ZNF330 / Fold change vs veh, ZNF330 / RFU, GPN3 / Fold change vs veh, GPN3 / RFU, C9orf123 / Fold change vs veh, C9orf123 / RFU, N4BP2L2 / Fold change vs veh, N4BP2L2 / RFU, ARFIP1 / Fold change vs veh, ARFIP1 / RFU, FAM179B / Fold change vs veh, FAM179B / RFU, BCL10 / Fold change vs veh, BCL10 / RFU, UHRF1BP1L / Fold change vs veh, UHRF1BP1L / RFU, BET1 / Fold change vs veh, BET1 / RFU, CNOT2 / Fold change vs veh, CNOT2 / RFU, ZNF268 / Fold change vs veh, ZNF268 / Fold change vs veh, ZNF507 / RFU, DGCR2 / Fold change vs veh, DGCR2 / RFU, WDSUB1 / Fold change vs veh, WDSUB1 / Fold change vs veh, HSP90B1 /// MIR3652 / RFU, ADSS / Fold change vs veh, ADSS / RFU, GK / Fold change vs veh, GK / RFU, ZNF148 / Fold change vs veh, ZNF148 / RFU, TAF9 / Fold change vs veh, TAF9 / RFU, SLC1A5 / Fold change vs veh, SLC1A5 / RFU, SLMO2 / Fold change vs veh, SLMO2 / RFU, ABCC4 / Fold change vs veh, ABCC4 / RFU, LOC101060439 /// RAP1B / Fold change vs veh, LOC101060439 /// RAP1B / RFU, RFX7 / Fold change vs veh, RFX7 / RFU, GTPBP10 / Fold change vs veh, GTPBP10 / RFU, CNEP1R1 / Fold change vs veh, CNEP1R1 / RFU, BIVM-ERCC5 /// ERCC5 / Fold change vs veh, BIVM-ERCC5 /// ERCC5 / RFU, ILF3 / Fold change vs veh, ILF3 / RFU 11762660_at / Fold change /veh 11762660_at / RFU VCAN (11757783_s_at) / Fold change /veh VCAN (11757783_s_at) / RFU DDX43 (11728927_at) / Fold change /veh DDX43 (11728927_at) / RFU KRT8 (11758188_x_at) / Fold change /veh KRT8 (11758188_x_at) / RFU NKD1 (11759106_at) / Fold change /veh NKD1 (11759106_at) / RFU SRD5A1 (11742802_a_at) / Fold change /veh SRD5A1 (11742802_a_at) / RFU TPSAB1 /// TPSB2 (11721975_s_at) / Fold change /veh TPSAB1 /// TPSB2 (11721975_s_at) / RFU GSTM3 (11746129_a_at) / Fold change /veh GSTM3 (11746129_a_at) / RFU IL23R (11737362_x_at) / Fold change /veh IL23R (11737362_x_at) / RFU TMEM51 (11727254_a_at) / Fold change /veh TMEM51 (11727254_a_at) / RFU PIWIL2 (11732686_x_at) / Fold change /veh PIWIL2 (11732686_x_at) / RFU ORM1 (11744905_x_at) / Fold change /veh ORM1 (11744905_x_at) / RFU CCDC152 (11743942_at) / Fold change /veh CCDC152 (11743942_at) / RFU ECM1 (11717891_a_at) / Fold change /veh ECM1 (11717891_a_at) / RFU IL23R (11748794_a_at) / Fold change /veh IL23R (11748794_a_at) / RFU TNFAIP8L3 (11732012_x_at) / Fold change /veh TNFAIP8L3 (11732012_x_at) / RFU MBOAT4 (11741988_at) / Fold change /veh MBOAT4 (11741988_at) / RFU 11764193_at / Fold change /veh 11764193_at / RFU TMEM53 (11763286_at) / Fold change /veh TMEM53 (11763286_at) / RFU MAGEB2 (11727129_at) / Fold change /veh MAGEB2 (11727129_at) / RFU TMEM200A (11744735_a_at) / Fold change /veh TMEM200A (11744735_a_at) / RFU CCDC152 (11751479_a_at) / Fold change /veh CCDC152 (11751479_a_at) / RFU FAM211A (11726209_a_at) / Fold change /veh FAM211A (11726209_a_at) / RFU RGS16 (11746705_a_at) / Fold change /veh RGS16 (11746705_a_at) / RFU VCAN (11755009_s_at) / Fold change /veh VCAN (11755009_s_at) / RFU RHOB (11743442_s_at) / Fold change /veh RHOB (11743442_s_at) / RFU RGS16 (11720943_a_at) / Fold change /veh RGS16 (11720943_a_at) / RFU RGS16 (11720944_at) / Fold change /veh RGS16 (11720944_at) / RFU, VPS4B / Fold change vs veh, VPS4B / RFU, CREB1 / Fold change vs veh, CREB1 / RFU, DNAJC13 / Fold change vs veh, DNAJC13 / RFU, GNAQ / Fold change vs veh, GNAQ / RFU, CDK5R1 / Fold change vs veh, CDK5R1 / RFU, ZRANB3 / Fold change vs veh, ZRANB3 / RFU, CUL4A / Fold change vs veh, CUL4A / RFU, CCNY / Fold change vs veh, CCNY / RFU, UFL1 / Fold change vs veh, UFL1 / RFU, COG3 / Fold change vs veh, COG3 / RFU, DIAPH2 / Fold change vs veh, DIAPH2 / RFU, SKA2 / Fold change vs veh, SKA2 / RFU, AFF3 / Fold change vs veh, AFF3 / RFU, LMF1 / Fold change vs veh, LMF1 / RFU, IPO11 / Fold change vs veh, IPO11 / RFU, DFFB / Fold change vs veh, DFFB / RFU, FOXP1 / Fold change vs veh, FOXP1 / RFU, CARD8 / Fold change vs veh, CARD8 / RFU, STRN3 / Fold change vs veh, STRN3 / RFU, ADK / Fold change vs veh, ADK / RFU, RASSF2 / Fold change vs veh, RASSF2 / RFU, WIPF1 / Fold change vs veh, WIPF1 / RFU, LARP1B / Fold change vs veh, LARP1B / RFU, RASA1 / Fold change vs veh, RASA1 / RFU, RB1 / Fold change vs veh, RB1 / RFU, PPFIA1 / Fold change vs veh, PPFIA1 / RFU, MAT2A / Fold change vs veh, MAT2A / RFU, CCT5 / Fold change vs veh, CCT5 / RFU, WDR92 / Fold change vs veh, WDR92 / RFU, CUX1 / Fold change vs veh, CUX1 / RFU, TTC7A / Fold change vs veh, TTC7A / RFU, TMEM135 / Fold change vs veh, TMEM135 / RFU, DEPTOR / Fold change vs veh, DEPTOR / RFU, CPM / Fold change vs veh, CPM / RFU, DNAJB6 / Fold change vs veh, DNAJB6 / RFU, CACNA2D3 / Fold change vs veh, CACNA2D3 / RFU, DTX4 / Fold change vs veh, DTX4 / RFU, TFCP2 / Fold change vs veh, TFCP2 / RFU, GMCL1 /// GMCL1P1 / Fold change vs veh, GMCL1 /// GMCL1P1 / RFU, AEBP2 / Fold change vs veh, AEBP2 / RFU, SNHG1 /// SNORD22 /// SNORD25 /// SNORD26 /// SNORD27 /// SNORD28 /// SNORD29 /// SNORD31 / Fold change vs veh, SNHG1 /// SNORD22 /// SNORD25 /// SNORD26 /// SNORD27 /// SNORD28 /// SNORD29 /// SNORD31 / Fold change (Aza/veh), C12orf56 (ProbeSet 11735607_a_at) / Fold change (ACY-1035/veh), C12orf56 (ProbeSet 11735607_a_at) / Fold change (Aza/veh), FGFR1OP (ProbeSet 11751329_s_at) / Fold change (ACY-1035/veh), FGFR1OP (ProbeSet 11751329_s_at) / Fold change (Aza/veh), VPS36 (ProbeSet 11739960_a_at) / Fold change (ACY-1035/veh), VPS36 (ProbeSet 11739960_a_at) / RFU SYPL1 (11715823_x_at) / Fold change /veh SYPL1 (11715823_x_at) / RFU IGFBP7 (11715501_s_at) / Fold change /veh IGFBP7 (11715501_s_at) / RFU REEP3 (11722064_at) / Fold change /veh REEP3 (11722064_at) / RFU IGLL1 (11728026_x_at) / Fold change /veh IGLL1 (11728026_x_at): dose or concentration left out as unconfirmed
Settings: MV-4-11 cells, 48 hours

Nc1ncn([C@@H]2O[C@H](CO)[C@@H](O)[C@H]2O)c(=O)n1 [azacitidine]
RFU RGS16 (11720944_at): 63.78 RFU

— article PMC5218480 (PLoS ONE, 2017)
